Entries after “also recorded” stand apart in the source; their conditions may differ.
Key:
Assay type in all cases: in vivo
Drosophila melanogaster [1] = experiment: Two-choice trap olfactory assay; conditions: for interaction with control trap in comparison with repellent-treated trap: low participation; for trap preference (control trap versus repellent-treated trap): DMSO control vs 25 μl of 25% by weight in DMSO
Experimental: (§1) The D. melanogaster assays served as a model for SWD repellency. Forty different aromatic amides were studied at a 25% concentration by weight in DMSO, and the fruit fly chemosensory behaviors in response thereto were characterized. […]
(§2) Flies were monitored throughout their life cycle. Five-day-old flies (10 male and 10 females) were selected per assay, and starved for a predetermined length of time (e.g., 20 hours). After starvation, two different assays were used to study the olfactory related responses.
FIG. 7B is a diagram of a 2-choice trap olfactory assay. Two ACV traps 110a-b were prepared as above, in a cylinder 150 from upturned 1.5 ml micro-centrifuge tubes with the tapered end trimmed away, and a pipette 120a-b inserted into the inverted micro-centrifuge tube. In the cylinder 150, one trap 110a was treated with 25 μl of DMSO (as a control) on the filter paper 135, and the other trap 110b with the 25 μl of the 25% by weight solution of the test compound in DMSO applied to the filter paper 130. 125 μl of 10% ACV, diluted with water, was placed in the bottom of the traps 110a-b. Both traps contained filter paper as prepared in the one-trap assay. All trials were screened for 24 hours, and the number of flies 105 in each trap was counted. Positions of the traps (i.e., left or right, relative to the location of the chamber 150 in the room) were randomized. The number of flies 105 in each trap 110a and 110b were counted and recorded at 4, 6 and 24 hours.
(§3) The different assays assigned results as follows. For the single-choice olfactory assay, the numbers of flies were counted according to (1) those that entered the trap, (2) those that stayed outside the trap and lived, and (3) those that died outside the trap. For the two-choice olfactory assay, the numbers of flies were counted according to (1) those that entered the control trap, (2) those that entered the trap containing the repellent, (3) those that stayed outside of both traps and lived, and (4) those that died outside the traps. For the gustatory assay, the numbers of flies were counted according to those that had (1) a red-colored abdomen, (2) a blue-colored abdomen, (3) a purple abdomen, and (4) no added color to their abdomen. A nonparametric Mann-Whitney U test was used to compare the statistical differences between assays using DEET and the same assays using one of the present repellents for all trials.

Drosophila melanogaster [2] = experiment: One-choice (single-trap) olfactory trap assay; conditions: for repellency compared with DEET, one-choice trap assay: 25 μl of 25% by weight in DMSO on filter paper, 10% ACV attractant, 6 hours (FIG. 10) and 24 hours (FIG. 13); for fly death during the 6-hour screen: starved flies
Experimental: as §1, §2
FIG. 7A is a diagram of a single-trap olfactory assay. Flies 105 were placed in a cylindrical chamber 100 containing a trap 110. The trap 110 was fashioned from an upturned 1.5 ml micro-centrifuge tube where the tapered end was trimmed away. A pipette tip 120 was cut to form a funnel and inserted into the bottom of the inverted micro-centrifuge tube 110. Then, filter paper 130 was placed between the pipette tip 120 and tip of micro-centrifuge tube 110. The pipette tip 120 was placed so that entering flies could not make physical contact with the filter paper 130. The filter paper 130 was placed in this manner so that when the filter paper 130 was treated with the repellent solution, the flies would only be able to smell at a distance and should be repelled even in the presence of an attractant.
A 25 μl sample of test compound at 25% concentration was applied to the filter paper 130 in order to provide the odor source. At the bottom of the trap 110, 125 μl of 10% apple cider vinegar (ACV) was placed as an attractant. Trials were conducted for 24 hours to visualize the number of flies 105 entering the trap 110. Typically, flies that entered the trap 110 contacted the liquid ACV and died in the ACV. Flies were counted and recorded at 4, 6, and 24 hours. No control other than DEET was used for this experiment, because it was a single trap, comparing the number of flies 105 repelled by the repellent versus the number of flies 105 interacting with the attractant (ACV).
as §3

Drosophila melanogaster [3] = experiment: Gustatory assay (fructose preference, food colouring); conditions: 1 hour feeding; for gustatory repellency (preference for repellent-treated sugar versus control-treated sugar): 35 mM fructose with 5 mM repellent vs 25 mM fructose control
Experimental: The D. melanogaster assays served as a model for SWD repellency. Forty different aromatic amides were studied at a 25% concentration by weight in DMSO, and the fruit fly chemosensory behaviors in response thereto were characterized.
In the gustatory assay, the consumption of sugar (from a solution in a gel) treated at varying concentrations of the present repellent compounds was compared to the consumption of control-treated sugar. For the habituation assay, flies were tested over repeated exposures to the present repellent compounds to measure changes in behavioral preference for the compounds.
Flies were continuously monitored throughout their lifecycle. In doing so, 3- to 5-day-old flies (half male and half female) were selected and starved for 20 hours. Flies were then introduced to 96-well plates 200 with wells 210a-220vv that were alternately filled with two different sugar solutions, as shown in FIG. 8. Wells 210a-210vv were filled with 25 mM fructose in DMSO (as a control), colored with red food coloring, and wells 220a-220vv were filled with […] fructose mixed with 5 mM of the present insect repellent in DMSO, colored with blue food coloring. The food coloring is nontoxic, so it has no effect on preference. Using an established protocol (Montell, C., et al., Avoiding DEET through insect gustatory receptors. NIH Neuron 67(4), 2010, 555-561: doi:10.1016/j.neuron.2010.07.006), flies selected between the fructose control or fructose mixed with aromatic amide repellent. Tests were performed on at least one group of about 50 males and at least one group of 50 females. Flies were placed in the dark for 1 hour, then the food coloring in the fly's abdomen was visualized under a compound microscope. The color of the abdomen was noted, along with the intensity, providing a quantitative idea of how much sugar each fly consumed, and from which type of well (control vs. mixed with repellent). The flies were fed for one hour so that the amount of food coloring was significant enough to be visible. A preference index was made to define the amount of food coloring consumed and assess the degree of repellent avoidance via gustatory processes.
as §3

[4] = one-choice trap, 25% concentration
[5] = one-choice trap, 25% concentration, 6 hours

SMILES	participation in choosing either trap (Drosophila melanogaster [1]; 25% by weight, 6 hours)	trap preference (control trap versus repellent-treated trap) (Drosophila melanogaster [1]; 6 hours)	repellency compared with DEET, one-choice trap assay (Drosophila melanogaster [2])	fly death during the 6-hour screen (Drosophila melanogaster [2]; [5])	further results
Cc1cccc(C(=O)N2CCCCC2)c1 [Compound 1mC]	less overall participation	preference for the control trap	more effective than DEET	no fly death	average number of flies that chose a trap in 6 hours (Drosophila melanogaster [1]; 25% by weight, 20 flies per assay, 6 hours): 1 flies; interaction with control trap in comparison with repellent-treated trap (Drosophila melanogaster [1]; 25% by weight): more flies interacted with the control trap; aversion (no flies entering the single-choice trap) (Drosophila melanogaster [2]; [4]): 100%; ranking among repellents in the one-choice assay (Drosophila melanogaster [2]; [4]): most effective repellents; repellency (Drosophila melanogaster [2]; [5]): significant repellency
Cc1cccc(C(=O)N2CCOCC2)c1 [Compound 1mD]	–	–	–	–	gustatory repellency (preference for repellent-treated sugar versus control-treated sugar) (Drosophila melanogaster [3]): act as a gustatory repellent
Cc1cccc(C(=O)N2CCN(C)CC2)c1 [Compound 1mE, 1-methyl-4-(3-methylbenzoyl)piperazine]	–	–	more effective than DEET	some fly death	–
Cc1ccccc1C(=O)N1CCOCC1 [Compound 1oD]	less overall participation	preference for the control trap	more effective than DEET	some fly death	–
Cc1ccccc1C(=O)N1CCN(C)CC1 [Compound 1oE]	less overall participation	preference for the control trap	–	–	interaction with control trap in comparison with repellent-treated trap (Drosophila melanogaster [1]; 25% by weight): more flies interacted with the control trap
O=C(c1cccc(F)c1)N1CCCCC1 [Compound 2mC]	–	–	more effective than DEET	–	–
O=C(c1ccccc1F)N1CCCC1 [Compound 2oB]	less overall participation	preference for the control trap	–	–	interaction with control trap in comparison with repellent-treated trap (Drosophila melanogaster [1]; 25% by weight): more flies interacted with the control trap
O=C(c1ccccc1F)N1CCCCC1 [Compound 2oC]	–	–	more effective than DEET	no fly death	repellency (Drosophila melanogaster [2]; [5]): significant repellency
O=C(c1ccccc1F)N1CCOCC1 [Compound 2oD]	–	–	more effective than DEET	–	–
O=C(c1cccc(C(F)(F)F)c1)N1CCCC1 [Compound 3mB]	less overall participation	preference for the control trap	more effective than DEET	no fly death	repellency (Drosophila melanogaster [2]; [5]): significant repellency
O=C(c1cccc(C(F)(F)F)c1)N1CCOCC1 [Compound 3mD]	–	–	more effective than DEET	some fly death	–
O=C(c1ccccc1C(F)(F)F)N1CCCC1 [Compound 3oB]	–	–	more effective than DEET	–	–
CN1CCN(C(=O)c2ccccc2C(F)(F)F)CC1 [Compound 3oE]	–	–	more effective than DEET	–	–
O=C(c1cccc([N+](=O)[O-])c1)N1CCCCC1 [Compound 4mC]	–	–	more effective than DEET; also recorded: significantly better than DEET	all the flies were dead	average number of flies that entered the trap (Drosophila melanogaster [2]; one-choice trap, 25% concentration, 20 flies per assay, 6 hours): 5 flies; fly mortality (Drosophila melanogaster [2]; one-choice trap, 25% concentration, exposure in the gas phase): high mortality
O=C(c1cccc([N+](=O)[O-])c1)N1CCOCC1 [Compound 4mD]	–	–	–	–	gustatory repellency (preference for repellent-treated sugar versus control-treated sugar) (Drosophila melanogaster [3]): act as a gustatory repellent
CN1CCN(C(=O)c2ccccc2[N+](=O)[O-])CC1 [Compound 4oE]	–	–	more effective than DEET	some fly death	–
COc1cccc(C(=O)N2CCCC2)c1 [Compound 5mB]	much higher mean participation	significantly greater preference for the control trap	–	–	gustatory repellency compared with DEET (Drosophila melanogaster [3]; 5 mM repellent, FIG. 12): worse than DEET; gustatory repellency (preference for repellent-treated sugar versus control-treated sugar) (Drosophila melanogaster [3]): act as a gustatory repellent; also recorded: slightly lower preference
COc1cccc(C(=O)N2CCCCC2)c1 [Compound 5mC]	–	–	more effective than DEET	–	gustatory repellency (preference for repellent-treated sugar versus control-treated sugar) (Drosophila melanogaster [3]): act as a gustatory repellent
COc1cccc(C(=O)N2CCN(C)CC2)c1 [Compound 5mE]	less overall participation	preference for the control trap	–	–	–
COc1ccccc1C(=O)N1CCCCC1 [Compound 5oC]	–	–	more effective than DEET	–	–
Nc1cccc(C(=O)N2CCCC2)c1 [Compound 6mB]	higher mean participation	preferred the control trap	–	–	–
CN1CCN(C(=O)c2cccc(N)c2)CC1 [Compound 6mE]	–	–	more effective than DEET	–	–
Nc1ccccc1C(=O)N1CCCCC1 [Compound 6oC]	–	–	more effective than DEET	–	–

Reference: patent publication US12108762B2, “Methods of controlling crop pests using aromatic amide insect repellents, methods of making aromatic amide insect repellents, and novel aromatic amide insect repellents” (priority 2020, dated 2024)
